In patent publication US9637451B2, “Indole compound” (ASTELLAS PHARMA INC., priority 2014, dated 2017):
pEC50: −log10 of the molar value.

How the values were obtained:
human MT2 receptor = target: T1, human MT2 receptor (Homo sapiens, UniProt P49286); test: Activation of human MT2 receptor in receptor-expressing cells, intracellular Ca2+ by FLIPR; type: cell-based; conditions: for pEC50: HEK293 cells stably expressing human MT2 and Gq/i chimeric G protein, Ca2+ FLIPR; for Emax: maximum reaction by ramelteon taken as 100%
T1 construct: expressed in transfected cells
T1 sequence (P49286 1-362): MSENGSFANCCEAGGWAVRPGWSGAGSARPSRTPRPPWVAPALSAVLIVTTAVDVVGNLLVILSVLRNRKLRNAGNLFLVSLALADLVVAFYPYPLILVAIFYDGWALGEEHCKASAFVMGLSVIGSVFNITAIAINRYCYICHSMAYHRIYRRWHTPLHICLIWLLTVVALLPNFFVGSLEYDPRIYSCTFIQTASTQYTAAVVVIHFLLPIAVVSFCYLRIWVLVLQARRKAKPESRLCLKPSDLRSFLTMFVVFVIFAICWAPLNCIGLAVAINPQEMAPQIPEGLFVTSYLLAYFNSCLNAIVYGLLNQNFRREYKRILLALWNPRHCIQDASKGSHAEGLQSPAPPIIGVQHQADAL

human MT1 receptor = target: T2, human MT1 receptor (Homo sapiens, UniProt P48039); test: Activation of human MT1 receptor in receptor-expressing cells, intracellular Ca2+ by FLIPR; type: cell-based; conditions: for pEC50: HEK293EBNA1 cells stably expressing human MT1 and Gq/i chimeric G protein, Ca2+ FLIPR; for Emax: maximum reaction by ramelteon taken as 100%
T2 construct: expressed in transfected cells
T2 sequence (P48039 whole entry): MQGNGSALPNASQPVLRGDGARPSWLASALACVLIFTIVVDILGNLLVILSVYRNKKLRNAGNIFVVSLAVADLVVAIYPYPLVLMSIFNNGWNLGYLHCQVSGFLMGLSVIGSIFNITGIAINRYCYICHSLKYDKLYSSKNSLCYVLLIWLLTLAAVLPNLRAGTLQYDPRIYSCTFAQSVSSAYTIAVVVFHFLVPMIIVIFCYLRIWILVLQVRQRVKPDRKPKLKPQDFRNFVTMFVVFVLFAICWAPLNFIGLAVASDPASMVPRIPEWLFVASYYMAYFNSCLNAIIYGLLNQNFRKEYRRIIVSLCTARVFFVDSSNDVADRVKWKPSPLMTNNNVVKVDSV

| SMILES | pEC50 (human MT2 receptor) | Emax (human MT2 receptor) [%] | pEC50 (human MT1 receptor) | Emax (human MT1 receptor) [%] |
| --- | --- | --- | --- | --- |
| CC(=O)NCCc1c[nH]c2ccc(OCCOc3ccn(C)n3)cc12 [Example 2, N-[2-(5-{2-[(1-methyl-1H-pyrazol-3-yl)oxy]ethoxy}-1H-indol-3-yl)ethyl]acetamide] | 7.77 | 125 | 8.15 | 125 |
| CC(=O)NCCc1c[nH]c2ccc(OCCOc3cnccn3)cc12 [Example 3, N-(2-{5-[2-(pyrazin-2-yloxy)ethoxy]-1H-indol-3-yl}ethyl)acetamide] | 7.29 | 127 | 8.00 | 94 |
| CCOC(=O)NCCOc1ccc2[nH]c(C)c(CCNC(C)=O)c2c1 [Example 12] | 7.74 | 93 | 8.11 | 96 |
| COc1ccc(OCCOc2cc3c(CCNC(C)=O)c(C)[nH]c3cc2F)cn1 [Example 16] | 7.00 | 82 | 8.00 | 100 |
| COC(=O)NCCOc1ccc2[nH]c(C)c(CCNC(C)=O)c2c1 [Example 17] | 7.48 | 91 | 8.23 | 84 |
| COC(=O)NCCOc1cc2c(CCNC(C)=O)c(C)[nH]c2cc1F [Example 19] | 7.77 | 91 | 8.24 | 94 |
| CNC(=O)NCCc1c[nH]c2ccc(OCCc3nc(C)sc3C)cc12 [Example 21] | 7.36 | 59 | 8.15 | 103 |
| CC(=O)NCCc1c[nH]c2cc(F)c(OCCn3cc(Cl)cn3)cc12 [Example 24] | 7.74 | 71 | 7.89 | 99 |
| CCc1ccn(CCOc2cc3c(CCNC(C)=O)c[nH]c3cc2F)n1 [Example 27] | 8.00 | 82 | 8.06 | 83 |
| COc1ccc(OCCOc2cc3c(CCNC(C)=O)c[nH]c3cc2F)cn1 [Example 28] | 7.46 | 62 | 8.17 | 119 |
| CC(=O)NCCc1c(C)[nH]c2ccc(OCCn3ccc(C)n3)cc12 [Example 29] | 7.62 | 112 | 8.00 | 100 |
| CNC(=O)NCCc1c(C)[nH]c2ccc(OCCn3ccc(C)n3)cc12 [Example 30] | 7.82 | 110 | 8.32 | 106 |
| COc1ncc(OCCOc2ccc3[nH]cc(CCNC(C)=O)c3c2)cc1F [Example 32] | 7.30 | 66 | 8.47 | 96 |
| COc1ncc(OCCOc2cc3c(CCNC(C)=O)c[nH]c3cc2F)cc1F [Example 33] | 7.22 | 53 | 8.37 | 103 |
| CC(=O)NCC(C)c1c[nH]c2ccc(OCCOc3ccn(C)n3)cc12 (centres unmarked) [Example 34] | 8.00 | 125 | 8.37 | 93 |
| CC(=O)NCC(C)(C)c1c[nH]c2cc(F)c(OCCn3ccc(C)n3)cc12 [Example 36] | 7.82 | 96 | 8.22 | 101 |
| CC(=O)NC[C@H](C)c1c[nH]c2cc(F)c(OCCn3ccc(C)n3)cc12 [Example 39] | 7.29 | 49 | 8.14 | 104 |
| COc1ccc(OCCOc2cc3c([C@@H](C)CNC(C)=O)c[nH]c3cc2F)cn1 [Example 40] | 6.80 | 42 | 8.20 | 81 |
| CCCC(=O)NCCc1c[nH]c2ccc(OCCOc3ccn(C)n3)cc12 [Example 41] | 7.59 | 93 | 7.96 | 75 |
| Cn1ccc(OCCOc2ccc3[nH]cc(CCNC(=O)C(F)F)c3c2)n1 [Example 42] | 7.92 | 103 | 8.10 | 97 |
| CCC(=O)NCCc1c(C)[nH]c2cc(F)c(OCCOc3ccn(C)n3)cc12 [Example 45] | 7.85 | 127 | 8.64 | 99 |
| CNC(=O)NCCc1c(C)[nH]c2cc(F)c(OCCOc3ccn(C)n3)cc12 [Example 47] | 7.39 | 145 | 8.01 | 124 |
| CNC(=O)NCCc1c(C)[nH]c2ccc(OCCOc3cnc(OC)c(F)c3)cc12 [Example 48] | 7.25 | 106 | 8.08 | 92 |
| CC(=O)NCCc1c[nH]c2ccc(OCCOc3cncc(Br)c3)cc12 [Example 49] | 7.96 | 119 | 8.25 | 102 |
| CC(=O)NCCc1c[nH]c2ccc(OCCOc3cncc(F)c3)cc12 [Example 57] | 7.89 | 114 | 7.92 | 94 |
| CC(=O)NCCc1c[nH]c2ccc(OCCOc3nccc(C(F)(F)F)n3)cc12 [Example 62] | 7.80 | 118 | 7.96 | 101 |

Other lines, results leading:

| pEC50 (human MT2 receptor) | Emax (human MT2 receptor) [%] | pEC50 (human MT1 receptor) | Emax (human MT1 receptor) [%] | SMILES |
| --- | --- | --- | --- | --- |
| 8.11 | 119 | 8.39 | 115 | CC(=O)NCCc1c[nH]c2ccc(OCCc3csc(C)n3)cc12 [Example 20] |
| 8.06 | 95 | 8.14 | 105 | CC(=O)NCCc1c(C)[nH]c2cc(F)c(OCCn3ccc(C)n3)cc12 [Example 22] |
| 8.54 | 96 | 8.82 | 105 | CC(=O)NCCc1c[nH]c2cc(F)c(OCCc3csc(C)n3)cc12 [Example 25] |
| 8.01 | 106 | 8.06 | 97 | CNC(=O)NCCc1c[nH]c2cc(F)c(OCCc3csc(C)n3)cc12 [Example 26] |
| 8.08 | 114 | 8.43 | 94 | CC(=O)NCC(C)(C)c1c[nH]c2cc(F)c(OCCOc3ccn(C)n3)cc12 [Example 35] |
| 8.15 | 104 | 8.28 | 110 | CCC(=O)NCCc1c[nH]c2cc(F)c(OCCOc3ccn(C)n3)cc12 [Example 43] |
| 8.35 | 102 | 8.48 | 103 | Cn1ccc(OCCOc2cc3c(CCNC(=O)C(F)F)c[nH]c3cc2F)n1 [Example 44] |
| 8.20 | 76 | 8.47 | 78 | CCC(=O)NCCc1c[nH]c2cc(F)c(OCCOc3ccc(OC)nc3)cc12 [Example 46] |
| 8.19 | 111 | 8.07 | 89 | CNC(=O)NCCc1c[nH]c2ccc(OCCOc3cncc(Br)c3)cc12 [Example 50] |
| 8.33 | 108 | 8.28 | 95 | CC(=O)NCCc1c[nH]c2ccc(OCCOc3ccnc(Cl)c3)cc12 [Example 51] |
| 8.25 | 117 | 8.00 | 92 | CNC(=O)NCCc1c[nH]c2ccc(OCCOc3ccnc(Cl)c3)cc12 [Example 52] |
| 8.32 | 99 | 9.00 | 112 | CNC(=O)NCCc1c[nH]c2ccc(OCCOc3cccc(OC)n3)cc12 [Example 53] |
| 8.59 | 109 | 9.11 | 111 | COc1cccc(OCCOc2ccc3[nH]cc(CCNC(C)=O)c3c2)n1 [Example 54] |
| 8.04 | 133 | 8.10 | 109 | CC(=O)NCCc1c[nH]c2ccc(OCCOc3cncc(Cl)c3)cc12 [Example 55] |
| 8.00 | 125 | 7.82 | 92 | CNC(=O)NCCc1c[nH]c2ccc(OCCOc3cncc(Cl)c3)cc12 [Example 56] |
| 8.47 | 99 | 8.92 | 99 | CNC(=O)NCCc1c[nH]c2ccc(OCCOc3cccc(C)n3)cc12 [Example 58] |
| 8.02 | 99 | 8.18 | 120 | CC(=O)NCCc1c[nH]c2ccc(OCCOc3ccnc(C)c3)cc12 [Example 59] |
| 8.04 | 104 | 8.14 | 94 | CC(=O)NCCc1c[nH]c2ccc(OCCOc3cccc(C4CC4)n3)cc12 [Example 60] |
| 8.27 | 92 | 8.16 | 84 | CCCc1cccc(OCCOc2ccc3[nH]cc(CCNC(C)=O)c3c2)n1 [Example 61] |
| 8.05 | 105 | 8.01 | 90 | CC(=O)NCCc1c[nH]c2ccc(OCCOc3ccon3)cc12 [Example 63] |
| 8.68 | 116 | 8.80 | 102 | CC(=O)NCCc1c[nH]c2ccc(OCCOc3ccccn3)cc12 [Example 64] |
